Data taken from US9051596B2, “Method for screening inhibitory substances to inflammatory skin-aging” (AMOREPACIFIC CORPORATION, priority 2011, dated 2015).

Experiments:
Assay type in all cases: cell-based, human
[1] = system: inflammatory cytokines; assay: Production of inflammatory cytokines in THP-1 cells treated with glycitein and stimulants (cytokine array kit); conditions: 10 μM glycitein, then 1 μg/mL LPS and 500 UNITs IFN-γ, FIG. 10
Protocol: THP-1 cells (acquired from Korean Cell Line Bank) were seeded onto a 6-well plate, with 5×10^5 cells per well, and treated with 10 μM glycitein. […] The cells untreated or treated only with the stimulant were used as a control group. The culture medium was centrifuged at 1000 rpm for 3 minutes and the supernatant was taken. The inflammatory cytokines included in the cell culture medium were identified using a cytokine array kit (R&D Systems).

[2] = system: THP-1 cells; assay: Viability of THP-1 cells treated with glycitein, optionally with LPS and IFN-γ (cell counting kit); conditions: 24 hours
Protocol: (§1) THP-1 cells (acquired from Korean Cell Line Bank) were seeded onto a 96-well plate, with 3×10^4 cells per well, and cultured in an RPMI-1640 medium (acquired from Lonza) containing 10% (v/v) FBS, 100 U/mL penicillin and 100 μg/mL streptomycin under the condition of 37° C. and 5% CO2 for 24 hours. […] After treating with a cell counting kit reagent, with 1/10 the volume of each well, and culturing for 2 hours, O.D. value was measured using SpectraMax.

[3] = system: TNF-α; assay: Production of TNF-α in THP-1 cells treated with glycitein and stimulants (TNF-α ELISA kit); conditions: THP-1 cells, 0, 0.1, 1 and 10 μM glycitein, then 1 μg/mL LPS and 500 UNITs IFN-γ, FIG. 9
Protocol: THP-1 cells (acquired from Korean Cell Line Bank) were seeded onto a 6-well plate, with 5×10^5 cells per well, and treated with 0, 0.1, 1 and 10 μM glycitein. […] After culturing for 24 hours, the culture medium was centrifuged at 1000 rpm for 3 minutes and the supernatant was taken. The concentration of TNF-α in the culture medium was determined using a TNF-α ELISA kit.

[4] = system: NHF cells; assay: Viability of NHF cells treated with glycitein and stimulants (cell counting kit); conditions: 0.1-10 μM glycitein together with 1 μg/mL LPS and 500 UNITs IFN-γ, 24 hours, FIG. 11
Protocol: as §1, with “NHF” for “THP-1”, “Lonza)” for “Korean Cell Line Bank)”, “1×10^4” for “3×10^4”, “a DMEM” for “an RPMI-1640”, “hours, then” for “hours,”

[5] = system: MMP-1; assay: Production of MMP-1 in NHF cells treated with glycitein and stimulated THP-1 cell culture medium (MMP-1 assay kit); conditions: NHF cells pretreated with 10 μM glycitein, then stimulated THP-1 culture medium, FIG. 12
Protocol: THP-1 cells (acquired from Korean Cell Line Bank) were seeded onto a 6-well plate, with 5×10^5 cells per well, and cultured in an RPMI-1640 medium (acquired from Lonza) containing 10% (v/v) FBS, 100 U/mL penicillin and 100 μg/mL streptomycin under the condition of 37° C. and 5% CO2 for 24 hours. Also, NHF cells (acquired from Lonza) were seeded onto a 24-well plate, with 3×10^4 cells per well, and cultured in a DMEM medium (acquired from Lonza) containing 10% (v/v) FBS, 100 U/mL penicillin and 100 μg/mL streptomycin under the condition of 37° C. and 5% CO2 for 24 hours. […] The THP-1 cell culture medium was centrifuged at 1000 rpm for 3 minutes and the supernatant was taken. The NHF cells were treated with the supernatant. NHF cells treated with serum-free DMEM (acquired from Lonza) were used as an untreated group. After culturing for 24 hours, the concentration of MMP-1 in the NHF cells was measured using an MMP-1 assay kit and the ratio of the concentration of MMP-1 relative to the untreated group was calculated.

[6] = system: TNF-α; assay: Production of TNF-α in THP-1 cells treated with LPS and/or IFN-γ (TNF-α ELISA kit); conditions: IFN-γ alone, all concentrations (250, 500, 1000 UNITs), FIG. 1
Protocol: THP-1 cells (acquired from Korean Cell Line Bank) were seeded onto a 6-well plate, with 5×10^5 cells per well, and cultured in an RPMI-1640 medium (acquired from Lonza) containing 10% (v/v) FBS, 100 U/mL penicillin and 100 μg/mL streptomycin under the condition of 37° C. and 5% CO2 for 24 hours. Subsequently, the cells were cultured for 24 hours after treating with three kinds of LPS derived from Escherichia coli (E. coli O111:B4, E. coli O55:B5 and E. coli EH100) and two kinds of LPS derived from Salmonella [Salmonella typhosa (S. typhosa) and Salmonella typhimurium (S. typhimurium), acquired from Sigma Aldrich], at concentrations of 0, 0.1 and 1 μg/mL, and with 0, 250, 500 and 1000 UNITs of INF-γ (acquired from Sigma Aldrich). Subsequently, the culture medium was centrifuged at 1000 rpm for 3 minutes and the supernatant was taken and then the concentration of TNF-α in the supernatant was determined using a TNF-α ELISA kit.

[7] = system: THP-1 cells; assay: Viability of THP-1 cells treated with LPS and IFN-γ (cell counting kit)
Protocol: as §1, with “hours, cell viability was determined by measuring” for “hours,”, “value” for “value was measured”

Row | Molecule | amount of the inflammatory cytokines produced upon treatment with the stimulant [1] | cytotoxicity ([2]; glycitein alone, 10 μM or lower, FIG. 7) | cytotoxicity ([2]; glycitein together with 1 μg/mL LPS and 500 UNITs IFN-γ, FIG. 8) | concentration of TNF-α [3] | cytotoxicity [4] | production of MMP-1 [5] | effect on the production of TNF-α [6] | cytotoxicity [7]
1 | COc1cc2c(=O)c(-c3ccc(O)cc3)coc2cc1O [glycitein] | decreased | no cytotoxicity | no cytotoxicity | lower as the concentration of glycitein increased | no cytotoxicity | decreased production of MMP-1 |  | 
2 | IFN-γ: interferon-γ acquired from Sigma Aldrich, enhances inflammatory stimulation by LPS (protein, UniProt P01579 24-161, looked up) Interferon gamma: QDPYVKEAENLKKYFNAGHSDVADNGTLFLGILKNWKEESDRKIMQSQIVSFYFKLFKNFKDDQSIQKSVETIKEDMNVKFFNSNKKKRDDFEKLTNYSVTDLNVQRKAIHELIQVMAELSPAAKTGKRKRSQMLFRG |  |  |  |  |  |  | no effect | no cytotoxicity
